Experimental data published in patent publication US20240150377A1, “MODULATORS OF CYSTIC FIBROSIS TRANSMEMBRANE CONDUCTANCE REGULATOR” (VERTEX PHARMACEUTICALS INCORPORATED, priority 2020, published 2024).

Each compound was assayed against T1, CFTR (Homo sapiens, UniProt P13569, DEL508-508) (assay: HBE2 assay: Ussing chamber assay of CFTR-mediated short-circuit currents). Conditions: 3 μM corrector; F508del/MF-HBE cells; with 44 nM potentiator, 18-24 hours, 20% human serum.
T1 construct: endogenous in cells; host or cells: primary human bronchial epithelial cells from CF subjects (F508del/MF-HBE), differentiated at air-liquid interface
T1 sequence (P13569 with tags, fused parts or gaps DEL508-508): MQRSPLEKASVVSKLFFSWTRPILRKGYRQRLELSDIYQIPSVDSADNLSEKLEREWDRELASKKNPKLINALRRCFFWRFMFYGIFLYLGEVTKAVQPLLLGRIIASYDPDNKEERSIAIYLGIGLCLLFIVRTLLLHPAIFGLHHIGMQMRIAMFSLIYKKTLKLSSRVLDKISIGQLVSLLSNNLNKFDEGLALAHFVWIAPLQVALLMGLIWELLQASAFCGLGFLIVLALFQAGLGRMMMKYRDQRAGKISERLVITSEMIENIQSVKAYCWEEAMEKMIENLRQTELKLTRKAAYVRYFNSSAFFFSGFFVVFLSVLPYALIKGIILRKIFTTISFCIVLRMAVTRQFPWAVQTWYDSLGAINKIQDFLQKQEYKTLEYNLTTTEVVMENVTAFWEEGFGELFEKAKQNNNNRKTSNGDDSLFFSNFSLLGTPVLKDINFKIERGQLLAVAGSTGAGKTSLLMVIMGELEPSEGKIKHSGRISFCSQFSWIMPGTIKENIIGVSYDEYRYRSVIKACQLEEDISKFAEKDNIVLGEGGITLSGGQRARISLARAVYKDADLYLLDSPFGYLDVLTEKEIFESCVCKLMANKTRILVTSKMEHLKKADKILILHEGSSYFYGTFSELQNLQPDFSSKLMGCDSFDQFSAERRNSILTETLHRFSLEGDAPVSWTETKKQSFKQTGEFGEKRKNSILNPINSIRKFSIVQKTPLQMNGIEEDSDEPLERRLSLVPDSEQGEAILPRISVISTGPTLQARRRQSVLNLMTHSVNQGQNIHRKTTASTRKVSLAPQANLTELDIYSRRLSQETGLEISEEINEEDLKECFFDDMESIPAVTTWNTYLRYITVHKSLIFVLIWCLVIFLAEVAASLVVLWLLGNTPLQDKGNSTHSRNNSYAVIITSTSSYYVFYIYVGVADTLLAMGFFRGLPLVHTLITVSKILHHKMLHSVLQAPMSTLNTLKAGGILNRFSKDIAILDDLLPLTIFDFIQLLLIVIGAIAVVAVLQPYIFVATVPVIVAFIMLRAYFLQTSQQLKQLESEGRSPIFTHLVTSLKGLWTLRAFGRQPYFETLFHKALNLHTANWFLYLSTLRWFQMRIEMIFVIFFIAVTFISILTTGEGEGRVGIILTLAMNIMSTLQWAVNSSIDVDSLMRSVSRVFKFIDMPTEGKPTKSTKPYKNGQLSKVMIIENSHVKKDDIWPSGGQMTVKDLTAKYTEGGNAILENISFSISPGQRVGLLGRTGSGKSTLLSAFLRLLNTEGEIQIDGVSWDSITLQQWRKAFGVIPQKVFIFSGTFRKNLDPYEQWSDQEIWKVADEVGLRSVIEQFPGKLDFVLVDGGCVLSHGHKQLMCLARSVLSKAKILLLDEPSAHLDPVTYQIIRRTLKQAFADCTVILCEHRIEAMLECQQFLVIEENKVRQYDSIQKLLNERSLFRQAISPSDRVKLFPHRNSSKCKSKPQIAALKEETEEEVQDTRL
Assay type: cell-based
Method in brief: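 Corrector activity read as CFTR-dependent ISC (μA/cm^2): peak forskolin current minus post-inhibitor steady state. Measured at 37 °C, voltage clamp at 0 mV, on F508del/MF-HBE epithelia grown >14 days air-liquid interface in Ussing chambers.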
`Cc1cccc(C)c1-c1cc2nc(n1)NS(=O)(=O)c1cccc(c1)C(=O)N(Cc1cnc3cc(C(C)C)n(C)c3n1)[C@H](CC1(C)CC1)CO2` [Compound 1831] was tested, and the “HBE2 Activity at 3 μM (%)” value was “+++ (+++ is >60+)”. With `Cc1cccc(C)c1-c1cc2nc(n1)NS(=O)(=O)c1cccc(n1)C(=O)N(Cc1cncc(N(C)C3CCC3)n1)[C@H](CC(C)(C)C)CO2` [Compound 1832] the “HBE2 Activity at 3 μM (%)” value was “+++ (+++ is >60+)”. In the case of `Cc1cccc(C)c1-c1cc2nc(n1)NS(=O)(=O)c1cccc(c1)C(=O)N(Cc1cnc(C)c(N3CC[C@H]3C)n1)[C@H](CC(C)(C)C)CO2` [Compound 1833], the “HBE2 Activity at 3 μM (%)” value was “+++ (+++ is >60+)”. `Cc1cccc(C)c1-c1cc2nc(n1)NS(=O)(=O)c1cccc(c1)C(=O)N(Cc1cnc3cc(C(C)C)n(C)c3n1)[C@H](CC(C)C)CO2` [Compound 1834] was tested, and the “HBE2 Activity at 3 μM (%)” value was “+++ (+++ is >60+)”. For `Cc1cccc(C)c1-c1cc2nc(n1)NS(=O)(=O)c1cccc(c1)C(=O)N(Cc1cnc3cc(C(C)C)n(C)c3n1)[C@H](CC1(C(F)(F)F)CC1)CO2` [Compound 1835], the “HBE2 Activity at 3 μM (%)” value was “+++ (+++ is >60+)”. In the case of `Cc1cccc(C)c1-c1cc2nc(n1)NS(=O)(=O)c1cccc(c1)C(=O)N(Cc1cnc3cc(C(C)C)n(C)c3n1)[C@H](CC(C)(C)C(F)(F)F)CO2` [Compound 1836], the “HBE2 Activity at 3 μM (%)” value was “+++ (+++ is >60+)”. In the case of `Cc1cccc(C)c1-c1cc2nc(n1)NS(=O)(=O)c1cccc(c1)C(=O)N(Cc1cncc(N3CCC34CCC4)n1)[C@H](CCC(C)(C)C)CO2` [Compound 1837], the “HBE2 Activity at 3 μM (%)” value was “+++ (+++ is >60+)”. In the case of `Cc1cccc(C)c1-c1cc2nc(n1)NS(=O)(=O)c1cccc(c1)C(=O)N(Cc1cncc(N3CCC[C@@H]4CC[C@@H]43)n1)[C@H](CC1CC1)CO2` [Compound 1839], the “HBE2 Activity at 3 μM (%)” value was “+++ (+++ is >60+)”. For `Cc1cccc(C)c1-c1cc2nc(n1)NS(=O)(=O)c1cccc(c1)C(=O)N(Cc1cncc(N3CCC[C@@H]4CC[C@@H]43)n1)[C@H](CC(C)(C)F)CO2` [Compound 1840], the “HBE2 Activity at 3 μM (%)” value was “+++ (+++ is >60+)”. In the case of `Cc1cccc(C)c1-c1cc2nc(n1)NS(=O)(=O)c1cccc(c1)C(=O)N(Cc1cncc(C(C)C)n1)[C@H](CCC(C)(C)C)CO2` [Compound 1842], the “HBE2 Activity at 3 μM (%)” value was “+++ (+++ is >60+)”. With `Cc1cccc(C)c1-c1cc2nc(n1)NS(=O)(=O)c1cccc(c1)C(=O)N(Cc1cncc(N(C)C3CCC3)n1)[C@H](CC1CCCC1)CO2` [Compound 1844] the “HBE2 Activity at 3 μM (%)” value was “+++ (+++ is >60+)”. In the case of `Cc1cccc(C)c1-c1cc2nc(n1)NS(=O)(=O)c1cccc(c1)C(=O)N(Cc1cncc(N(C)CC(C)C)n1)[C@H](CC1CCCC1)CO2` [Compound 1845], the “HBE2 Activity at 3 μM (%)” value was “+++ (+++ is >60+)”. In the case of `Cc1cccc(C)c1-c1cc2nc(n1)NS(=O)(=O)c1cccc(c1)C(=O)N(Cc1cncc(N3CCC[C@H]3C(C)C)n1)[C@H](CC1CCCC1)CO2` [Compound 1846], the “HBE2 Activity at 3 μM (%)” value was “+++ (+++ is >60+)”. With `Cc1cccc(C)c1-c1cc2nc(n1)NS(=O)(=O)c1cccc(c1)C(=O)N(Cc1cncc(N3CCCC[C@H]3C)n1)[C@H](CC1CCCC1)CO2` [Compound 1847] the “HBE2 Activity at 3 μM (%)” value was “+++ (+++ is >60+)”. `Cc1cccc(C)c1-c1cc2nc(n1)NS(=O)(=O)c1cccc(c1)C(=O)N(Cc1cncc(N(C)[C@H]3C[C@@H](F)C3)n1)[C@H](CCC(C)(C)C)CO2` [Compound 1848] was tested, and the “HBE2 Activity at 3 μM (%)” value was “+++ (+++ is >60+)”. For `Cc1cccc(C)c1-c1cc2nc(n1)NS(=O)(=O)c1cccc(c1)C(=O)N(Cc1cncc(N(C)[C@H]3C[C@H](F)C3)n1)[C@H](CCC(C)(C)C)CO2` [Compound 1849], the “HBE2 Activity at 3 μM (%)” value was “+++ (+++ is >60+)”. With `CCN(c1cncc(CN2C(=O)c3cccc(c3)S(=O)(=O)Nc3nc(cc(-c4c(C)cccc4C)n3)OC[C@H]2CCC(C)(C)C)n1)C(C)C` [Compound 1850] the “HBE2 Activity at 3 μM (%)” value was “+++ (+++ is >60+)”. For `COC[C@@H](C)N(C)c1cncc(CN2C(=O)c3cccc(c3)S(=O)(=O)Nc3nc(cc(-c4c(C)cccc4C)n3)OC[C@H]2CCC(C)(C)C)n1` [Compound 1851], the “HBE2 Activity at 3 μM (%)” value was “+++ (+++ is >60+)”. In the case of `Cc1cccc(C)c1-c1cc2nc(n1)NS(=O)(=O)c1cccc(c1)C(=O)N(Cc1cncc(C3CCC3)n1)[C@H](CCC(C)(C)C)CO2` [Compound 1852], the “HBE2 Activity at 3 μM (%)” value was “+++ (+++ is >60+)”. In the case of `Cc1cccc(C)c1-c1cc2nc(n1)NS(=O)(=O)c1cccc(c1)C(=O)N(Cc1cnc3ccn(C)c3n1)[C@H](CC(C)(C)C)CO2` [Compound 1853], the “HBE2 Activity at 3 μM (%)” value was “+++ (+++ is >60+)”. With `Cc1cccc(C)c1-c1cc2nc(n1)NS(=O)(=O)c1cccc(c1)C(=O)N(Cc1cncc(N3CC[C@H]4CC[C@H]43)n1)[C@H](CCC(C)(C)C)CO2` [Compound 1854] the “HBE2 Activity at 3 μM (%)” value was “+++ (+++ is >60+)”. In the case of `COC[C@H]1CCCCN1c1cncc(CN2C(=O)c3cccc(c3)S(=O)(=O)Nc3nc(cc(-c4c(C)cccc4C)n3)OC[C@H]2CCC(C)(C)C)n1` [Compound 1857], the “HBE2 Activity at 3 μM (%)” value was “+++ (+++ is >60+)”. For `Cc1cccc(C)c1-c1cc2nc(n1)NS(=O)(=O)c1cccc(c1)C(=O)N(Cc1cnc3c(cc(C(C)C)n3C)n1)[C@H](CC(C)(C)C)CO2` [Compound 1858], the “HBE2 Activity at 3 μM (%)” value was “+++ (+++ is >60+)”. `CCC(C)(C)C[C@@H]1COc2cc(-c3c(C)cccc3C)nc(n2)NS(=O)(=O)c2cccc(c2)C(=O)N1Cc1cncc(N2CC[C@H]2C)n1` [Compound 1860] was tested, and the “HBE2 Activity at 3 μM (%)” value was “++ (++ is 30-60%)”. `CCC(C)(C)C[C@@H]1COc2cc(-c3c(C)cccc3C)nc(n2)NS(=O)(=O)c2cccc(c2)C(=O)N1Cc1cncc(N2CC[C@H]2C)n1` [Compound 1861] was tested, and the “HBE2 Activity at 3 μM (%)” value was “+++ (+++ is >60+)”. With `CCC(C)(C)C[C@@H]1COc2cc(-c3c(C)cccc3C)nc(n2)NS(=O)(=O)c2cccc(c2)C(=O)N1Cc1cncc(N2CCCC[C@H]2C)n1` [Compound 1862] the “HBE2 Activity at 3 μM (%)” value was “++ (++ is 30-60%)”. `CCC(C)(C)C[C@@H]1COc2cc(-c3c(C)cccc3C)nc(n2)NS(=O)(=O)c2cccc(c2)C(=O)N1Cc1cncc(N2CCCC[C@H]2C)n1` [Compound 1863] was tested, and the “HBE2 Activity at 3 μM (%)” value was “+++ (+++ is >60+)”. In the case of `CC[C@H]1CCN1c1cncc(CN2C(=O)c3cccc(c3)S(=O)(=O)Nc3nc(cc(-c4c(C)cccc4C)n3)OC[C@H]2CCC(C)(C)C)n1` [Compound 1864], the “HBE2 Activity at 3 μM (%)” value was “+++ (+++ is >60+)”. For `Cc1cccc(C)c1-c1cc2nc(n1)NS(=O)(=O)c1cccc(c1)C(=O)N(Cc1cncc(N3CCC[C@H]3C3CC3)n1)[C@H](CC1CCCCC1)CO2` [Compound 1866], the “HBE2 Activity at 3 μM (%)” value was “+++ (+++ is >60+)”. With `COC[C@@H]1CCCN1c1cncc(CN2C(=O)c3cccc(c3)S(=O)(=O)Nc3nc(cc(-c4c(C)cccc4C)n3)OC[C@H]2CC2CCCCC2)n1` [Compound 1867] the “HBE2 Activity at 3 μM (%)” value was “+++ (+++ is >60+)”. For `Cc1cccc(C)c1-c1cc2nc(n1)NS(=O)(=O)c1cccc(c1)C(=O)N(Cc1cncc(N3CC[C@H]3COC(C)C)n1)[C@H](CCC(C)(C)C)CO2` [Compound 1868], the “HBE2 Activity at 3 μM (%)” value was “+++ (+++ is >60+)”. For `COCC1(CN(C)c2cncc(CN3C(=O)c4cccc(c4)S(=O)(=O)Nc4nc(cc(-c5c(C)cccc5C)n4)OC[C@H]3CCC(C)(C)C)n2)CC1` [Compound 1876], the “HBE2 Activity at 3 μM (%)” value was “+++ (+++ is >60+)”. With `Cc1cccc(C)c1-c1cc2nc(n1)NS(=O)(=O)c1cccc(c1)C(=O)N(Cc1cncc(C3CCOCC3)n1)[C@H](CCC(C)(C)C)CO2` [Compound 1879] the “HBE2 Activity at 3 μM (%)” value was “+++ (+++ is >60+)”. With `Cc1cccc(C)c1-c1cc2nc(n1)NS(=O)(=O)c1cccc(c1)C(=O)N(Cc1cnc3cc(C(C)C)oc3n1)[C@H](CC(C)(C)C)CO2` [Compound 1882] the “HBE2 Activity at 3 μM (%)” value was “+++ (+++ is >60+)”. In the case of `Cc1cccc(C)c1-c1cc2nc(n1)NS(=O)(=O)c1cccc(c1)C(=O)N(Cc1cnc3c(n1)N(C)C(C)(C)C3)[C@H](CC(C)(C)C)CO2` [Compound 1883], the “HBE2 Activity at 3 μM (%)” value was “+++ (+++ is >60+)”. `Cc1cccc(C)c1-c1cc2nc(n1)NS(=O)(=O)c1cccc(c1)C(=O)N(Cc1cncc(N(C)[C@H]3C[C@@H](C)C3)n1)[C@H](CCC(C)(C)C)CO2` [Compound 1884] was tested, and the “HBE2 Activity at 3 μM (%)” value was “+++ (+++ is >60+)”. `Cc1cccc(C)c1-c1cc2nc(n1)NS(=O)(=O)c1cccc(c1)C(=O)N(Cc1cncc(N(C)[C@H]3C[C@H](C)C3)n1)[C@H](CCC(C)(C)C)CO2` [Compound 1885] was tested, and the “HBE2 Activity at 3 μM (%)” value was “+++ (+++ is >60+)”. `Cc1cccc(C)c1-c1cc2nc(n1)NS(=O)(=O)c1cccc(c1)C(=O)N(Cc1cncc(N3CCC[C@H]3C)n1)[C@H](CC1CCCC1)CO2` [Compound 1888] was tested, and the “HBE2 Activity at 3 μM (%)” value was “+++ (+++ is >60+)”. For `Cc1cccc(C)c1-c1cc2nc(n1)NS(=O)(=O)c1cccc(c1)C(=O)N(Cc1cnc3cc(C(C)C)n(C)c3n1)[C@H](COC1CC1)CO2` [Compound 1889], the “HBE2 Activity at 3 μM (%)” value was “+++ (+++ is >60+)”. `Cc1cccc(C)c1-c1cc2nc(n1)NS(=O)(=O)c1cccc(c1)C(=O)N(Cc1cncc(N(C)C3CCC3)n1)[C@H](COC1CC1)CO2` [Compound 1893] was tested, and the “HBE2 Activity at 3 μM (%)” value was “+++ (+++ is >60+)”. `Cc1cccc(C)c1-c1cc2nc(n1)NS(=O)(=O)c1cccc(c1)C(=O)N(Cc1cncc(N3CCCC[C@H]3C)n1)[C@@H](C1CC(C)(C)C1)CO2` [Compound 1898] was tested, and the “HBE2 Activity at 3 μM (%)” value was “+++ (+++ is >60+)”. For `Cc1cccc(C)c1-c1cc2nc(n1)NS(=O)(=O)c1cccc(c1)C(=O)N(Cc1cncc(N3CCC[C@H]3C)n1)[C@H](CC1CC(C)(C)C1)CO2` [Compound 1899], the “HBE2 Activity at 3 μM (%)” value was “+++ (+++ is >60+)”. With `Cc1cccc(C)c1-c1cc2nc(n1)NS(=O)(=O)c1cccc(c1)C(=O)N(Cc1cncc(N3CCC[C@H]3C)n1)[C@H](CC1CC(C)(C)C1)CO2` [Compound 1900] the “HBE2 Activity at 3 μM (%)” value was “+ (+ is <300))”.
